Source: patent US10597392B2, “Tetrahydropyridopyrazines as modulators of GPR6” (Takeda Pharmaceutical Corporation Limited, priority 2014, dated 2020)

What follows are compounds tested against T1, GPR6 receptor expressed in CHO-K1 cells (Homo sapiens, UniProt P46095) (assay: Inhibition of cAMP Activity of GPR6 In Vitro Assay). Conditions: inhibition of constitutive cAMP activity of GPR6 in CHO-K1 cells, 45 min incubation, HTRF cAMP detection.
T1 construct: expressed in transfected cells
Type: cell-based
Method: Inhibition of cAMP Activity of GPR6 In Vitro Assay
This cell based assay measures the ability of compounds to inhibit the constitutive cAMP activity of GPR6 receptor expressed in CHO-K1 cells. CHO cells were stably expressed with GPR6 receptor, whose expression is controlled by a tetracycline inducable element. The cells were cultured in medium containing F12K, 10% FBS, 1% Penn/Strep, 200 ug/mL Hygromycin. GPR6 receptor expression was induced for 20 hrs with 2 µg/ml doxycycline (sigma D9891) in growth media. After addition of doxycycline cells were plated at a density of 450-750 cells per well in 96-well half-volume black tissue culture plates (Costar) and placed in an incubator (37°, 5% CO2) for 20 hours prior to cAMP assays.
Culture media was removed from cells and they were washed with 50 µL/well of Ringer's Buffer (MgCl2 0.047 mg/mL, NaH2PO4 0.18 mg/mL, Na2HPO4 0.1 mg/mL, KCl 0.34 mg/mL, NaHCO3 1.26 mg/mL, D-glucose 1.8 mg/mL, NaCl 7 mg/mL; pH=7.4). Compounds suspended in DMSO were diluted in Ringer's Buffer containing 0.5% fatty acid free BSA plus 300 μM IBMX and incubated on cells for 45 min at 37° and 5% CO2. After incubation cells were incubated for 10 min at room temp with Eu-cAMP tracer solution from a Perkin Elmer Lance HTRF Ultra cAMP assay kit (TRF0263). Then ULight™-anti-cAMP solution from the Lance HTRF kit was added and incubated on a shaker at room temp for 1 hour prior to HTRF detection in a Perkin Elmer Envision plate reader.
IC50 curves were generated with a four-parameter logistic equation using GraphPad Prism 5.03.

T1 sequence (P46095 whole entry): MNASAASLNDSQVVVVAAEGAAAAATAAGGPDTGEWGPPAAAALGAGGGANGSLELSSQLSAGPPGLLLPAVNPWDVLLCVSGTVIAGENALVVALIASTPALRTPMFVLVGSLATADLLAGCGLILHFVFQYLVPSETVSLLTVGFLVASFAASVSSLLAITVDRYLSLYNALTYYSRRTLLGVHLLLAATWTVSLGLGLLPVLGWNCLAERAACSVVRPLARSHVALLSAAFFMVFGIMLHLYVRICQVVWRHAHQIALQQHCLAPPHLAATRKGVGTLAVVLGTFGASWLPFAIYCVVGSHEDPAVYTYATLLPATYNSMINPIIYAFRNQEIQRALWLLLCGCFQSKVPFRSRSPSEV

`Cc1cc2nc(N3CCN(Cc4ccc(OC(F)F)cc4F)CC3)c(N[C@@H]3CCOC3)nc2cn1` [Example 48, (R)-2-(4-(4-(difluoromethoxy)-2-fluorobenzyl)piperazin-1-yl)-7-methyl-N-(tetrahydrofuran-3-yl)pyrido[3,4-b]pyrazin-3-amine] and `Cc1cc2nc(N3CCN(Cc4ccc(OC(F)F)cc4F)CC3)c(N[C@H]3CCOC3)nc2cn1` [Example 49, (S)-2-(4-(4-(difluoromethoxy)-2-fluorobenzyl)piperazin-1-yl)-7-methyl-N-(tetrahydrofuran-3-yl)pyrido[3,4-b]pyrazin-3-amine] cannot be ordered by EC50: over 1 µM for the first, over 1 µM for the second.

Going from `Cc1cc2nc(NC3CC3)c(N3CCN(Cc4ccc(OC(F)F)cc4F)CC3)nc2cn1` [Example 27, N-cyclopropyl-3-(4-(4-(difluoromethoxy)-2-fluorobenzyl)piperazin-1-yl)-7-methylpyrido[3,4-b]pyrazin-2-amine] to `Cc1cc2nc(N3CCN(Cc4ccc(OC(F)F)cc4F)CC3)c(NC3CC3)nc2cn1` [Example 47, N-cyclopropyl-2-(4-(4-(difluoromethoxy)-2-fluorobenzyl)piperazin-1-yl)-7-methylpyrido[3,4-b]pyrazin-3-amine], the EC50 rises from 0.446 µM to over 1 µM.

Going from `Cc1cc2nc(NC(C)C)c(N3CCN(Cc4ccc(F)cc4F)CC3)nc2cn1` [Example 1, 3-(4-(2,4-difluorobenzyl)piperazin-1-yl)-N-isopropyl-7-methylpyrido[3,4-b]pyrazin-2-amine] to `COc1ccc(CN2CCN(c3nc4cnc(C)cc4nc3NC(C)C)CC2)c(F)c1` [Example 22, 3-(4-(2-fluoro-4-methoxybenzyl)piperazin-1-yl)-N-isopropyl-7-methylpyrido[3,4-b]pyrazin-2-amine], the EC50 falls from 0.0594 µM to 0.0373 µM (1.6-fold).

Compared with `Cc1cc2nc(N3CCN(Cc4ccc(F)cc4F)CC3)c(N[C@H]3CCOC3)nc2cn1` [Example 32, (S)-2-(4-(2,4-difluorobenzyl)piperazin-1-yl)-7-methyl-N-(tetrahydrofuran-3-yl)pyrido[3,4-b]pyrazin-3-amine], `Cc1cc2nc(N3CCN(Cc4ccc(F)cc4F)CC3)c(N[C@@H]3CCOC3)nc2cn1` [Example 33] is 3.2-fold lower in EC50: 0.326 µM for the first, 0.102 µM for the second.

Compared with `Cc1cc2nc(N[C@@H]3CCOC3)c(N3CCC(Oc4ccc(F)cc4F)CC3)nc2cn1` [Example 5, (R)-3-(4-(2,4-difluorophenoxy)piperidin-1-yl)-7-methyl-N-(tetrahydrofuran-3-yl)pyrido[3,4-b]pyrazin-2-amine], `Cc1cc2nc(N[C@H]3CCOC3)c(N3CCC(Oc4ccc(F)cc4F)CC3)nc2cn1` [Example 4, (S)-3-(4-(2,4-difluorophenoxy)piperidin-1-yl)-7-methyl-N-(tetrahydrofuran-3-yl)pyrido[3,4-b]pyrazin-2-amine] is 1.6-fold higher in EC50: 0.0301 µM for the first, 0.0496 µM for the second. The first is the more potent here.

`COc1ccc(CN2CCN(c3nc4cc(C)ncc4nc3N[C@@H]3CCOC3)CC2)c(F)c1` [Example 44, (R)-2-(4-(2-fluoro-4-methoxybenzyl)piperazin-1-yl)-7-methyl-N-(tetrahydrofuran-3-yl)pyrido[3,4-b]pyrazin-3-amine] and `COc1ccc(CN2CCN(c3nc4cc(C)ncc4nc3N[C@H]3CCOC3)CC2)c(F)c1` [Example 45, (S)-2-(4-(2-fluoro-4-methoxybenzyl)piperazin-1-yl)-7-methyl-N-(tetrahydrofuran-3-yl)pyrido[3,4-b]pyrazin-3-amine] cannot be ordered by EC50: over 1 µM for the first, over 1 µM for the second.

Going from `Cc1cc2nc(N[C@H]3CCOC3)c(N3CCC(Oc4ccc(OC(F)F)cc4F)CC3)nc2cn1` [Example 21, (S)-3-(4-(4-(difluoromethoxy)-2-fluorophenoxy)piperidin-1-yl)-7-methyl-N-(tetrahydrofuran-3-yl)pyrido[3,4-b]pyrazin-2-amine] to `Cc1cc2nc(N[C@@H]3CCOC3)c(N3CCC(Oc4ccc(OC(F)F)cc4F)CC3)nc2cn1` [Example 20, (R)-3-(4-(4-(difluoromethoxy)-2-fluorophenoxy)piperidin-1-yl)-7-methyl-N-(tetrahydrofuran-3-yl)pyrido[3,4-b]pyrazin-2-amine], the EC50 falls from 0.162 µM to 0.0814 µM (2-fold).

`Cc1cc2nc(N[C@H]3C[C@H](F)C3)c(N3CCC(Oc4ccc(F)cc4F)CC3)nc2cn1` [Example 11, trans-3-(4-(2,4-difluorophenoxy)piperidin-1-yl)-N-(3-fluorocyclobutyl)-7-methylpyrido[3,4-b]pyrazin-2-amino] and `Cc1cc2nc(N[C@H]3C[C@H](O)C3)c(N3CCC(Oc4ccc(F)cc4F)CC3)nc2cn1` [Example 13, trans-3-((3-(4-(2,4-difluorophenoxy)piperidin-1-yl)-7-methylpyrido[3,4-b]pyrazin-2-yl)amino)cyclobutanol] are within 1.5-fold of each other in EC50: 0.0614 µM for the first, 0.0482 µM for the second.

Compared with `COc1ccc(OC2CCN(c3nc4cnc(C)cc4nc3NC3CC3)CC2)c(F)c1` [Example 8, N-cyclopropyl-3-(4-(2-fluoro-4-methoxyphenoxy)piperidin-1-yl)-7-methylpyrido[3,4-b]pyrazin-2-amine 2,2,2-trifluoroacetate], `Cc1cc2nc(N3CCC(Oc4ccc(OC(F)F)cc4F)CC3)c(NC3CC3)nc2cn1` [Example 39, N-cyclopropyl-2-(4-(4-(difluoromethoxy)-2-fluorophenoxy)piperidin-1-yl)-7-methylpyrido[3,4-b]pyrazin-3-amine] is higher in EC50: 0.0185 µM for the first, over 5 µM for the second.

`COc1ccc(CN2CCN(c3nc4cnc(C)cc4nc3N[C@@H]3CCOC3)CC2)c(F)c1` [Example 24, (R)-3-(4-(2-fluoro-4-methoxybenzyl)piperazin-1-yl)-7-methyl-N-(tetrahydrofuran-3-yl)pyrido[3,4-b]pyrazin-2-amine] and `COc1ccc(CN2CCN(c3nc4cnc(C)cc4nc3N[C@H]3CCOC3)CC2)c(F)c1` [Example 25, (S)-3-(4-(2-fluoro-4-methoxybenzyl)piperazin-1-yl)-7-methyl-N-(tetrahydrofuran-3-yl)pyrido[3,4-b]pyrazin-2-amine] are within 1.5-fold of each other in EC50: 0.311 µM for the first, 0.278 µM for the second.

First: Cc1cc2nc(NC3CC3)c(N3CCC(Oc4ccc(OC(F)F)cc4F)CC3)nc2cn1 [Example 19, N-cyclopropyl-3-(4-(4-(difluoromethoxy)-2-fluorophenoxy)piperidin-1-yl)-7-methylpyrido[3,4-b]pyrazin-2-amine]
Second: Cc1cc2nc(N3CCC(Oc4ccc(OC(F)F)cc4F)CC3)c(N[C@@H]3CCOC3)nc2cn1 [Example 40, (R)-2-(4-(4-(difluoromethoxy)-2-fluorophenoxy)piperidin-1-yl)-7-methyl-N-(tetrahydrofuran-3-yl)pyrido[3,4-b]pyrazin-3-amine]
The EC50 of the first is lower: 0.0626 µM for the first, over 1 µM for the second.

`Cc1cc2nc(N[C@H]3CCOC3)c(N3CCN(Cc4ccc(OC(F)F)cc4F)CC3)nc2cn1` [Example 29, (S)-3-(4-(4-(difluoromethoxy)-2-fluorobenzyl)piperazin-1-yl)-7-methyl-N-(tetrahydrofuran-3-yl)pyrido[3,4-b]pyrazin-2-amine] and `Cc1cc2nc(N[C@@H]3CCOC3)c(N3CCN(Cc4ccc(OC(F)F)cc4F)CC3)nc2cn1` [Example 28, (R)-3-(4-(4-(difluoromethoxy)-2-fluorobenzyl)piperazin-1-yl)-7-methyl-N-(tetrahydrofuran-3-yl)pyrido[3,4-b]pyrazin-2-amine] cannot be ordered by EC50: over 1 µM for the first, over 1 µM for the second.

`Cc1cc2nc(N3CCN(Cc4ccc(F)cc4F)CC3)c(NC3CC3)nc2cn1` [Example 31, N-cyclopropyl-2-(4-(2,4-difluorobenzyl)piperazin-1-yl)-7-methylpyrido[3,4-b]pyrazin-3-amine 2,2,2-trifluoroacetate] and `Cc1cc2nc(N3CCN(Cc4ccc(F)cc4F)CC3)c(NC3COC3)nc2cn1` [Example 50, 2-(4-(2,4-difluorobenzyl)piperazin-1-yl)-7-methyl-N-(oxetan-3-yl)pyrido[3,4-b]pyrazin-3-amine] are within 1.5-fold of each other in EC50: 0.188 µM for the first, 0.164 µM for the second.

`Cc1cc2nc(N[C@H]3C[C@H](O)C3)c(N3CCN(Cc4ccc(F)cc4F)CC3)nc2cn1` [Example 14, trans-3-((3-(4-(2,4-difluorobenzyl)piperazin-1-yl)-7-methylpyrido[3,4-b]pyrazin-2-yl)amino)cyclobutanol] and `Cc1cc2nc(N[C@H]3C[C@@H](O)C3)c(N3CCN(Cc4ccc(F)cc4F)CC3)nc2cn1` [Example 10, cis-3-((3-(4-(2,4-difluorobenzyl)piperazin-1-yl)-7-methylpyrido[3,4-b]pyrazin-2-yl)amino)cyclobutanol] are within 1.5-fold of each other in EC50: 0.0752 µM for the first, 0.0693 µM for the second.

Going from `Cc1cc2nc(N[C@H]3CCOC3)c(N3CCN(Cc4ccc(F)cc4F)CC3)nc2cn1` [Example 3] to `Cc1cc2nc(N[C@H]3C[C@H](F)C3)c(N3CCN(Cc4ccc(F)cc4F)CC3)nc2cn1` [Example 12, trans-3-(4-(2,4-difluorobenzyl)piperazin-1-yl)-N-(3-fluorocyclobutyl)-7-methylpyrido[3,4-b]pyrazin-2-amine], the EC50 falls from 0.0882 µM to 0.0494 µM (1.8-fold). The second is the more potent here.

`Cc1cc2nc(N3CCC(Oc4ccc(F)cc4F)CC3)c(N[C@H]3CCOC3)nc2cn1` [Example 37, (S)-2-(4-(2,4-difluorophenoxy)piperidin-1-yl)-7-methyl-N-(tetrahydrofuran-3-yl)pyrido[3,4-b]pyrazin-3-amine] was tested, and the EC50 was 0.128 µM.
